Laboratory results from ChEMBL document CHEMBL1201862, “PubChem BioAssay data set” (2004).
Calls of active or inactive are those of the source.

What was measured:
[1] = target: Glyceraldehyde-3-phosphate dehydrogenase (Homo sapiens, UniProt P04406)
[2] = target: Glucose-6-phosphate 1-dehydrogenase (Homo sapiens, UniProt P11413); experiment: human G6PD enzyme inhibitors, dose response, selectivity assay for P. falciparum G6PD inhibitor project, biochemical, fluorescence (AID 504792); type: functional
Chain of Glucose-6-phosphate 1-dehydrogenase (P11413 whole entry): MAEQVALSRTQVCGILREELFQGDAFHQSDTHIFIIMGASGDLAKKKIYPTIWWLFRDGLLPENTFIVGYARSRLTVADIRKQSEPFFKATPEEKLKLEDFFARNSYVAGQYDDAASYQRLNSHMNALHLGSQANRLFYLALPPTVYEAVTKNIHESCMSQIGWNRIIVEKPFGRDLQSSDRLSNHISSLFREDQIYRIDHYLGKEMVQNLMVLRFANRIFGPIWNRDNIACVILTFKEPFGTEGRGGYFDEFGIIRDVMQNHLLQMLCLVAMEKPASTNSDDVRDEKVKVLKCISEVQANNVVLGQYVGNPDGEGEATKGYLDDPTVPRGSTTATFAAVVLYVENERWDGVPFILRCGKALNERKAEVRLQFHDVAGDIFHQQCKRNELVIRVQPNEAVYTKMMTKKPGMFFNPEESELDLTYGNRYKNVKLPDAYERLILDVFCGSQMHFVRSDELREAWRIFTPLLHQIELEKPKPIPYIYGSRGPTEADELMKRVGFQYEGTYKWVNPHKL

HEK293 [3] = experiment: inhibitors of LMP1-driven NF-kB reporter, dose response, cell-based, HEK293, luciferase, cherry-pick (AID 588343); type: functional; settings: Homo sapiens
Beta-galactosidase = Beta-galactosidase (Escherichia coli, UniProt Q8VNN2); experiment: PubChem AID 485352; type: functional
Chain of Beta-galactosidase (Q8VNN2 whole entry): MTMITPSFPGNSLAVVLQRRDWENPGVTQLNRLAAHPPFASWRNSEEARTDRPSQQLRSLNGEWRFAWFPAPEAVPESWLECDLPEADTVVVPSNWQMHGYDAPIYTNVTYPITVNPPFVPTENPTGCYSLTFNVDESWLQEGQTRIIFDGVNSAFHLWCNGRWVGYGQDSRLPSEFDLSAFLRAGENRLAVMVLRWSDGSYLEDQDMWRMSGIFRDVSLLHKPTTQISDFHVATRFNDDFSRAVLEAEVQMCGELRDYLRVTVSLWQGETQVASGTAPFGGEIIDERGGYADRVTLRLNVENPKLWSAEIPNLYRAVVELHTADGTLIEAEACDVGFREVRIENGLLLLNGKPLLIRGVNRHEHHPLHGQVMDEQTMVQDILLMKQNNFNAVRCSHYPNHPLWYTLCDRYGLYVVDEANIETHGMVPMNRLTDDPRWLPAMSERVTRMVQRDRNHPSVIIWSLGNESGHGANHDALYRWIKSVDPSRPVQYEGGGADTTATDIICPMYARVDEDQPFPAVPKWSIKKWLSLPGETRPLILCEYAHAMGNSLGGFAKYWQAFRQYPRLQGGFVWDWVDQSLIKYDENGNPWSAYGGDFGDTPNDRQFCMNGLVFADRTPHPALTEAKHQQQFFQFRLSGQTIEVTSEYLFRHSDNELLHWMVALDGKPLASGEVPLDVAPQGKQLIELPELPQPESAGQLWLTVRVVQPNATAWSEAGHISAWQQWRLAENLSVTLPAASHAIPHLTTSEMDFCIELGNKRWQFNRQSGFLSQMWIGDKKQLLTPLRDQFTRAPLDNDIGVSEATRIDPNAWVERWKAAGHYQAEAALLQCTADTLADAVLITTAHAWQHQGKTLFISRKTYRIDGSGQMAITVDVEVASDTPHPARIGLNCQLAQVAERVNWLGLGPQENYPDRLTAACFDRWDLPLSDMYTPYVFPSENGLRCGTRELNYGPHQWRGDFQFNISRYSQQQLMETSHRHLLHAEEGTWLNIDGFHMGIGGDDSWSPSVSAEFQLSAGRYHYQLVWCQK

[4] = target: T1, Type-1 angiotensin II receptor (Homo sapiens, UniProt P30556); experiment: AT1 receptor antagonists, dose response, selectivity assay for APJ receptor antagonist project, cell-based, uHTS hits (AID 463214); type: functional;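 further: antagonist potency against angiotensin II stimulated AT1 response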
T1 sequence (P30556 whole entry): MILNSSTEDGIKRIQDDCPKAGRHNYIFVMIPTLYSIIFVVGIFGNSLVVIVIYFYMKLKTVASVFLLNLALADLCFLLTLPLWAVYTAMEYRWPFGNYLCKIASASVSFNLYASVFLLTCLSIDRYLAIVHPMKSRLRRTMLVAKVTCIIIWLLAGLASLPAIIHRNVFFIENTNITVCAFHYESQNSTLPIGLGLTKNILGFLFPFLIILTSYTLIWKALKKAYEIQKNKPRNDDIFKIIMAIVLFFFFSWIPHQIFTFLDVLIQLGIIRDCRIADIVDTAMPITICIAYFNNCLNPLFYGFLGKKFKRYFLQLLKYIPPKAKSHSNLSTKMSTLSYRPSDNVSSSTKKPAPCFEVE

[5] = HEp-2 cell cytotoxicity, dose response, cytotoxicity control for RSV inhibitor project, HTS (AID 2410); type: functional; settings: human respiratory syncytial virus
[6] = target: T2, Ubiquitin-conjugating enzyme E2 N (Homo sapiens, UniProt P61088); type: functional
T2 sequence (P61088 whole entry): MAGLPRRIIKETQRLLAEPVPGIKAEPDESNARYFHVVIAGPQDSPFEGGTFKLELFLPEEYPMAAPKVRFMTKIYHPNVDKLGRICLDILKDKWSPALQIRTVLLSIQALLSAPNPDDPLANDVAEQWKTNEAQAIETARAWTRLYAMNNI

Bcl-2-related protein A1 = target: T3, Bcl-2-related protein A1 (Mus musculus, UniProt Q07440); type: functional;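 further: confirmatory dose–response counterscreen on Bfl-1, used to check hits from a UBC13 polyubiquitin inhibitor campaign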
T3 sequence (Q07440 whole entry): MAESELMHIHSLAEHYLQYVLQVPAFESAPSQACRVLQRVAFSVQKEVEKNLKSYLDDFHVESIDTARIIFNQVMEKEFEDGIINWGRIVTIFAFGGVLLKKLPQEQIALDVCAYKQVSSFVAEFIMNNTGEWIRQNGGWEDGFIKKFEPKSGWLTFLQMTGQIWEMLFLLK

[7] = target: T2, Ubiquitin-conjugating enzyme E2 N; type: functional; remark: listed apart in the source
[8] = target: T4, Carboxy-terminal domain RNA polymerase II polypeptide A small phosphatase 1 (Homo sapiens, UniProt Q9GZU7); experiment: inhibitors of CTDSP1, concentration-response testing, biochemical assay, absorbance-based, actives from ultra-high-throughput screening (AID 540297); type: functional
T4 sequence (Q9GZU7 whole entry): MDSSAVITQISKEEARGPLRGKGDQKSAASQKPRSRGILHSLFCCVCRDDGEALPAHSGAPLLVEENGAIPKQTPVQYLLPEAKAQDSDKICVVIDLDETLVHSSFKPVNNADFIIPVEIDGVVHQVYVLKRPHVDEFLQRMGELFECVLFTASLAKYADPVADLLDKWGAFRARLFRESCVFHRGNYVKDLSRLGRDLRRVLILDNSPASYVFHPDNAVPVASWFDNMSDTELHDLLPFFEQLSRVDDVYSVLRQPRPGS

[9] = target: DNA dC->dU-editing enzyme APOBEC-3G (Homo sapiens, UniProt Q9HC16); experiment: Dose Response confirmation of small molecule APOBEC3G DNA Deaminase Inhibitors via a fluorescence-based single-stranded DNA deaminase assay. [Related pubchem assays (depositor defined):AID493012, AID493028]; type: functional
Chain of DNA dC->dU-editing enzyme APOBEC-3G (Q9HC16 whole entry): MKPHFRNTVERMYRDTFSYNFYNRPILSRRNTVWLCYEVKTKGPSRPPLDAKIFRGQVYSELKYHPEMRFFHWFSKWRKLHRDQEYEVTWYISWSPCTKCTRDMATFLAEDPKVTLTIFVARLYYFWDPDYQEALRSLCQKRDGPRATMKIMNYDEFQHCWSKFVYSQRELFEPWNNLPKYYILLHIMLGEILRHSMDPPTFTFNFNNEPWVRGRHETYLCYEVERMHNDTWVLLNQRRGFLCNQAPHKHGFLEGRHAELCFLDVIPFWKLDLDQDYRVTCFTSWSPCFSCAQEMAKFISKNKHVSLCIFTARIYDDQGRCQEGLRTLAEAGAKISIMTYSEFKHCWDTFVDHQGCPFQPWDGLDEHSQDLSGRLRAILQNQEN

[10] = target: T5, DNA repair protein RAD52 homolog (Homo sapiens, UniProt P43351); type: functional, biochemical
T5 sequence (P43351 whole entry): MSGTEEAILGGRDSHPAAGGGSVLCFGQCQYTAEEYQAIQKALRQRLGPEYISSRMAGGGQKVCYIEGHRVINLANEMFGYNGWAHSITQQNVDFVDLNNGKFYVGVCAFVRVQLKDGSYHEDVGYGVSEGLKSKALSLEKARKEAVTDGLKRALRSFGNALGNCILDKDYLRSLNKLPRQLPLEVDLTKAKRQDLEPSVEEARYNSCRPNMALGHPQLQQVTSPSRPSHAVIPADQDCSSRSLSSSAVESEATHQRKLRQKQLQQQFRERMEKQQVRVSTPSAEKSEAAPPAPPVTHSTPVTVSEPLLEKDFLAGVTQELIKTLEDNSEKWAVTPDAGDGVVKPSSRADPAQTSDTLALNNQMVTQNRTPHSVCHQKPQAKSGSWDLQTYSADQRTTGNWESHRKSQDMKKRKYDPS

INS1 = experiment: beta cell apoptosis inhibitors, cytokine rescue, dose response, luminescence, retest (AID 449756); type: functional, cell-based; settings: Rattus norvegicus;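 further: cell death triggered by IL-1 beta plus TNF-alpha plus IFN-gamma mixture; protective hits raise ATP signal compared with cytokine alone wells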
[11] = cytotoxicity in HEK-293T cells, dose response, cytotoxicity control for TCR NF-kB inhibitor project, luminescence, T-cell screen hits (AID 489026); type: functional, cell-based;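 further: cells exposed to compound about 14 hours before the viability readout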
[12] = C. albicans growth with fluconazole, confirmation, fluorescence, retest (AID 2467); type: functional, cell-based
[13] = NIH-3T3 fibroblast cytotoxicity, dose response, cytotoxicity control, cell-based, fluorescence, Alamar Blue, secondary assay (AID 2327); type: functional;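 further: NIH-3T3 mouse fibroblasts cultured with fluconazole at 8 µg/mL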
HEK293 [14] = experiment: cells; type: functional, cell-based; settings: Homo sapiens
[15] = target: Nucleotide-binding oligomerization domain-containing protein 2 (Homo sapiens, UniProt Q9HC29); experiment: NOD2 signaling inhibitors, cell-based, luminescence, uHTS, HEK293 (AID 1566); type: functional
Chain of Nucleotide-binding oligomerization domain-containing protein 2 (Q9HC29 whole entry, the tested form may be a part): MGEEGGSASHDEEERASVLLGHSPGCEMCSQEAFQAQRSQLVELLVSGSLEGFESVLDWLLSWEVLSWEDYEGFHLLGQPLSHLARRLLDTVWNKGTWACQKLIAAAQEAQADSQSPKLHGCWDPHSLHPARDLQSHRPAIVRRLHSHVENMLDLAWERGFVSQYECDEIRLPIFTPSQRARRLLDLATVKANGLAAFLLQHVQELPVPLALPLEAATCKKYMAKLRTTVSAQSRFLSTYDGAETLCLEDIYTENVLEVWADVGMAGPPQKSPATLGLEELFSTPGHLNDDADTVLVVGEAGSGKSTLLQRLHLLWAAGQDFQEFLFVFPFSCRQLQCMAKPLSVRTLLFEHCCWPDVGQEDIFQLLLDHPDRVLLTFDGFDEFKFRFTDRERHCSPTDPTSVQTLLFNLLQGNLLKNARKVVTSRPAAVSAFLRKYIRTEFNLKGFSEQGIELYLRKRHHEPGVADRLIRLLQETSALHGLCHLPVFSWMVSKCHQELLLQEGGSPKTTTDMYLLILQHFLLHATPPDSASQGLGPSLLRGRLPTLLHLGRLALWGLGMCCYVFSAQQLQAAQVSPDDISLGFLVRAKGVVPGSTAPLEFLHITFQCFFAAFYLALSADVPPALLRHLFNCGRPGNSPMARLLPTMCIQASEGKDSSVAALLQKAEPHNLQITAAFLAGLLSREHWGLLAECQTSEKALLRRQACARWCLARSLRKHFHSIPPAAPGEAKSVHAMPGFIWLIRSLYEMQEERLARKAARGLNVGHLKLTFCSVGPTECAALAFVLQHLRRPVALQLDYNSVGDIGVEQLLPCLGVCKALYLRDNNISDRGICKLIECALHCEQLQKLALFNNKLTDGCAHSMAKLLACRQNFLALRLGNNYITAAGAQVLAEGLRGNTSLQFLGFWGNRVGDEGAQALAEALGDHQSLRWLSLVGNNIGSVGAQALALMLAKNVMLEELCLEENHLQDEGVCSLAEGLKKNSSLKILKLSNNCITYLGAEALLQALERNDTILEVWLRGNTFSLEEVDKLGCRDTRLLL

HEK293 [16] = experiment: NOD1 signaling inhibitors, primary screen, cell-based, luminescence, uHTS (AID 1578); type: functional; settings: Homo sapiens
HEK293 [17] = experiment: cells; type: functional, cell-based; settings: Homo sapiens; remark: listed apart in the source
HEK293 [18] = experiment: NOD2 signaling inhibitors in MDP-stimulated cells, cell-based, uHTS, luminescence (AID 2001); type: functional; settings: Homo sapiens
HEK293 [19] = experiment: cells; type: functional, cell-based; settings: Homo sapiens; remark: listed apart in the source
Vero [20] = experiment: cells; type: functional, cell-based; settings: Chlorocebus sabaeus
Vero [21] = experiment: cells; type: functional; settings: Chlorocebus sabaeus
[22] = target: T6, Microphthalmia-associated transcription factor (Homo sapiens, UniProt O75030); experiment: TRPM1 promoter luciferase signal decrease, dose response, MITF inhibitor project, cell-based, SK-MEL-5, cherry-picked, set 3 (AID 493073); type: functional
T6 sequence (O75030 whole entry): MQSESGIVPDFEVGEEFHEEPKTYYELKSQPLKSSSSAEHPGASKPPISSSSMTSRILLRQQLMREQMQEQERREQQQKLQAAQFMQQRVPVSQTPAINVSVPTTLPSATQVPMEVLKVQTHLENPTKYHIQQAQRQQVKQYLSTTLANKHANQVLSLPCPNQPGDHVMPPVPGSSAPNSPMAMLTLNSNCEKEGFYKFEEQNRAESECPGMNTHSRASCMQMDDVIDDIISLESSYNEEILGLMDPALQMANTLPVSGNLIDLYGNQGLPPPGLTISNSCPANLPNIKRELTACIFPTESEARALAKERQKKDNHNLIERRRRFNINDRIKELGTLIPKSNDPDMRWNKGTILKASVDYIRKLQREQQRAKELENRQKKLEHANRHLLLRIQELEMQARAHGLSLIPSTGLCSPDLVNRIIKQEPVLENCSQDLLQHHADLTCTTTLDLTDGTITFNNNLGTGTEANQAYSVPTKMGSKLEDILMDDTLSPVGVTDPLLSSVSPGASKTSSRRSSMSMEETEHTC

[23] = cytotoxicity in HPDE-C7 cells, cell-based, fluorescence, HTS (AID 430); type: functional; settings: Homo sapiens
[24] = cytotoxicity in KRAS-transformed pancreatic duct cells, primary screen, cell-based, fluorescence, HTS (AID 431); type: functional; settings: Homo sapiens;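 further: cell line used: HPDE-C7K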
[25] = HepG2 cell cytotoxicity, dose response, cytotoxicity control for Shn3 inhibitor project, CellTiter-Glo, cherry-picked (AID 624134); type: functional, cell-based
[26] = Shn3 3'UTR reporter inhibitors, dose response, cell-based, Clone20 osteoblasts, firefly luciferase, cherry-picked (AID 624132); type: functional;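 further: firefly luciferase luminescence from reporter carrying the Shn3 3'UTR in osteoblasts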
[27] = control 3'UTR Renilla luciferase suppression, dose response, counter-screen for Shn3 inhibitor project, cell-based, Clone20-Shn3RL, cherry-picked (AID 624133); type: functional
Estrogen receptor = target: T7, Estrogen receptor (Homo sapiens, UniProt P03372);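 further: potency for inhibiting coactivator peptide recruitment to the receptor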
T7 sequence (P03372 whole entry): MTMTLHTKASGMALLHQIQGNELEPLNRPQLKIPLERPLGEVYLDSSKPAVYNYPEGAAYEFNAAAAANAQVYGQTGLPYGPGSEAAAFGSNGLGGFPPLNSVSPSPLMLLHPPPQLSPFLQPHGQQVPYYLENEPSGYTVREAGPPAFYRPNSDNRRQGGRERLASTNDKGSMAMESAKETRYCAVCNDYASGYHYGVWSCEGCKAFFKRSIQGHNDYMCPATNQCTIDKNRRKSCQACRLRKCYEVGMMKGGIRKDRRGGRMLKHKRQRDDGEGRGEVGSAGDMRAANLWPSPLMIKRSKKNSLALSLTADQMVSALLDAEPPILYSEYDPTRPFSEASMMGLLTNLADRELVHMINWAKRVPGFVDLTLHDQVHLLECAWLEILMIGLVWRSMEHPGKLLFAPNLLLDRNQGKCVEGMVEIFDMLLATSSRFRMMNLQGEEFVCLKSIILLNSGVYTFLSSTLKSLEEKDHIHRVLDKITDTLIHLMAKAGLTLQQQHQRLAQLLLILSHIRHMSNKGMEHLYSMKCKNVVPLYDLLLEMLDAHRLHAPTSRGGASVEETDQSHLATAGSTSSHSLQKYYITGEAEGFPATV

Chain of Glyceraldehyde-3-phosphate dehydrogenase (P04406 whole entry): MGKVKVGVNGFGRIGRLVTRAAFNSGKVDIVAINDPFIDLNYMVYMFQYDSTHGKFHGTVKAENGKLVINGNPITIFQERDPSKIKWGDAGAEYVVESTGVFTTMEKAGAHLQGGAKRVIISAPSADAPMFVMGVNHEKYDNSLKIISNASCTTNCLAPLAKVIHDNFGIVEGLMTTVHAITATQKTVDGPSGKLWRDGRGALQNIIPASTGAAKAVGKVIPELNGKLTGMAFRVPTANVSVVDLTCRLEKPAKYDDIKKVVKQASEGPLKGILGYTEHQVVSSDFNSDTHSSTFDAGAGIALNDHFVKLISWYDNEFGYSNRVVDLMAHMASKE

COc1cc(/C=C2/SC(=S)NC2=O)cc(Cl)c1OCc1cccc2ccccc12
IC50 [1]: > 100 µM (not active)

C[C@H](CO)N1C[C@H](C)[C@@H](CN(C)C(=O)Nc2ccc(C(F)(F)F)cc2)Oc2c(cccc2N(C)C)C1=O
IC50 [2]: > 80 µM (inactive)

Cc1ccc(C(=O)Nc2nnc(SCC(=O)N3CCCc4ccccc43)s2)cc1
AC50 (HEK293 [3]): 1.3 µM (active)

COc1cc(N)c2ncsc2c1
IC50 [2]: > 80 µM (inactive)

Cc1cc(C)nc(NNS(=O)(=O)c2c(F)cc(F)cc2Br)n1
EC50 (Beta-galactosidase): > 40 µM (inactive) | IC50 [4]: 22.7 µM (not active)

CCc1ccc2nc(N(CCCN(C)C)C(=O)c3ccc(C(=O)c4ccccc4)cc3)sc2c1
CC50 [5]: 20.5 µM (active) | IC50 [6]: 13.2 µM (active) | IC50 (Bcl-2-related protein A1): > 20 µM (inactive) | IC50 [7]: 11.6 µM (active)

O=C(Nc1cc(S(=O)(=O)Nc2ccc(Cl)cc2)ccc1O)c1ccc(S(=O)(=O)N2CCCCCC2)cc1
IC50 [8]: 2.73 µM (active) | IC50 [9]: 73.7 µM (active)

CCCCCc1ccc(OCCCC[n+]2ccc(C)cc2)c(CCCCC)c1
AC50 [10]: 21.7 µM (active) | AC50 (INS1): 1.92 µM (active) | IC50 [11]: 58 µM (inactive) | EC50 [12]: 0.516 µM (active) | EC50 [13]: > 160 µM (inactive)

COc1ccc(C(=O)NC(=C(Cl)Cl)S(=O)(=O)c2ccc(C)cc2)cc1
IC50 (HEK293 [14]): 8.07 µM (active) | EC50 [15]: > 20 µM (inactive) | EC50 (HEK293 [16]): 12.3 µM (active) | IC50 (HEK293 [17]): > 20 µM (inactive) | IC50 (HEK293 [18]): 8.96 µM (active) | IC50 (HEK293 [19]): > 20 µM (inactive)

O=C(CNC(=O)c1cccc(S(=O)(=O)N2CCc3ccccc32)c1)Nc1ccccc1Br
IC50 (Vero [20]): 16.9 µM (active) | CC50 (Vero [21]): > 25 µM (active)

O=C(CCl)N1c2ccccc2SCC1c1ccccc1 (centres undefined)
IC50 (HEK293 [14]): 5.49 µM (active) | EC50 [15]: > 20 µM (inactive) | AC50 [22]: 4.2 µM (active) | EC50 (HEK293 [16]): 11.5 µM (active) | IC50 (HEK293 [17]): > 20 µM (inactive) | IC50 (HEK293 [18]): 8.37 µM (active) | IC50 (HEK293 [19]): > 20 µM (inactive) | EC50 [12]: > 38 µM (not active) | EC50 [13]: 7.57 µM (inconclusive)

Fc1ccc2[nH]c3c(N4CCSCC4)ncnc3c2c1
EC50 [23]: 13.4 µM (active) | EC50 [24]: 13.3 µM (active) | AC50 [25]: 30 µM (active) | AC50 [26]: 2.76 µM (active) | AC50 (HEK293 [3]): 1.5 µM (active) | AC50 [27]: 2.6 µM (active)

COc1cc(C(=O)OCCc2cc3ccccc3c(=O)o2)cc(OC)c1OC
IC50 [11]: 69.5 µM (inactive)

Cc1cccc(N2C(=O)C(Cl)=C(N3CCN[C@H](C)C3)C2=O)c1
IC50 [1]: > 50 µM (inconclusive)

Cn1c(SCc2cc(=O)n3cc(Br)ccc3n2)nnc1C1COc2ccccc2O1 (centres undefined)
IC50 [8]: 17.8 µM (active) | IC50 (Estrogen receptor): 25.2 µM (active)
